Data from publication PMC9371589 (Behavioural pharmacology, 2022).

Legend:
Format in all cases: in vivo, rat
[1] = tested on: male Sprague-Dawley rats; assay: Brennan model of incisional pain
[2] = tested on: male Sprague-Dawley rats; assay: Gastrointestinal transit of a charcoal meal; conditions: 30 mg/kg; vehicle 0.62 ± 0.02
[3] = tested on: male Sprague-Dawley rats; assay: Rotarod motor coordination; conditions: 10 mg/kg i.p., 30 minutes before test; vehicle 193.6 ± 14.9
[4] = tested on: male Sprague-Dawley rats; assay: Complete Freund's Adjuvant; conditions: 48 hours after CFA injection (24 hours post-treatment)

CN1CC[C@]23c4c5ccc(O)c4O[C@H]2[C@@H](O)C=C[C@H]3[C@H]1C5 [morphine]
effect of daily administration on anti-hyperalgesic effect (tolerance) ([1]; 5 mg/kg s.c. once a day for 7 consecutive days): blunted its effects on hyperalgesia | duration of anti-hyperalgesic effect ([1]; after single s.c. administration): < 6 h | relative distance traveled (gastrointestinal transit) [2]: 0.22 ± 0.02

CN1C(=O)CN=C(c2ccccc2)c2cc(Cl)ccc21 [Diazepam, diazepam]
time spent on the rotarod [3]: 60.1 ± 23.7 s

O=C(O)Cc1ccccc1Nc1c(Cl)cccc1Cl [Diclofenac, diclofenac]
effect on edema [4]: decreased edema
